Laboratory results from patent US7348426B1, “Substituted bicyclic heterocycles, process for their preparation and their use as antiobesity and hypocholesterolemic agents” (Dr. Reddy's Laboraties Limited, priority 1999, dated 2008).

Assays:
[1] = tested on: cholesterol fed Syrian Hamsters; details: hamster, in vivo, po, 10 mg/kg/day
C57BL/KsJ-db/db mice = test: Blood sugar and triglyceride lowering in db/db mice (genetic model); format: in vivo
From the text: Mutation in colonies of laboratory animals and different sensitivities to dietary regimens have made the development of animal models with non-insulin dependent diabetes and hyperlipidemia associated with obesity and insulin resistance possible. Genetic models such as db/db and ob/ob (Diabetes, (1982) 31(1): 1-6) mice and zucker fa/fa rats have been developed by the various laboratories for understanding the pathophysiology of disease and testing the efficacy of new antidiabetic compounds (Diabetes, (1983) 32: 830-838; Annu. Rep. Sankyo Res. Lab. (1994). 46: 1-57). The homozygous animals, C57 BL/KsJ-db/db mice developed by Jackson Laboratory, U.S., are obese, hyperglycemic, hyperinsulinemic and insulin resistant (J. Clin. Invest., (1990) 85: 962-967), whereas heterozygous are lean and normoglycemic. In db/db model, mouse progressively develops insulinopenia with age, a feature commonly observed in late stages of human type II diabetes when blood sugar levels are insufficiently controlled. The state of pancreas and its course vary according to the models. Since this model resembles that of type II diabetes mellitus, the compounds of the present invention were tested for blood sugar and triglycerides lowering activities. Male C57BL/KsJ-db/db mice of 8 to 14 weeks age, having body weight range of 35 to 60 grams, bred at Dr. Reddy's Research Foundation (DRF) animal house, were used in the experiment. The mice were provided with standard feed (National Institute of Nutrition (NIN), Hyderabad, India) and acidified water, ad libitum. The animals having more than 350 mg/dl blood sugar were used for testing. The number of animals in each group was 4. […] The control group received vehicle (dose 10 ml/kg). On 6th day the blood samples were collected one hour after administration of test compounds/vehicle for assessing the biological activity. The random blood sugar and triglyceride levels were measured by collecting blood (100 μl) through orbital sinus, using heparinised capillary in tubes containing EDTA which was centrifuged to obtain plasma. The plasma glucose and triglyceride levels were measured spectrometrically, by glucose oxidase and glycerol-3-PO4 oxidase/peroxidase enzyme (Dr. Reddy's Lab. Diagnostic Division Kits, Hyderabad, India) methods respectively. The blood sugar and triglycerides lowering activities of the test compound was calculated according to the formula. Formulae for Calculation: 1. Percent reduction in Blood sugar/triglycerides/total cholesterol were calculated according to the formula: [formula] OC=Zero day control group value OT=Zero day treated group value TC=Test day control group value TT=Test day treated group value 2. LDL and VLDL cholesterol levels were calculated according to the formula: […]

[2] = tested on: Swiss albino mice and Guinea pigs; test: Plasma triglyceride and total cholesterol lowering activity in Swiss albino mice and Guinea pigs; format: in vivo; details: 3 mg/kg orally for 6 days; species of the table not stated (Swiss albino mice / Guinea pigs)
Method: C) Plasma Triglyceride and Total Cholesterol Lowering Activity in Swiss Albino Mice and Guinea Pigs Male Swiss albino mice (SAM) and male Guinea pigs were obtained from NIN and housed in DRF animal house. All these animals were maintained under 12 hour light and dark cycle at 25±1° C. Animals were given standard laboratory chow (NIN, Hyderabad. India) and water, ad libitum. […] C. Effects of fenofibrate, gemfibrozil and nicotinic acid on plasma lipoprotein levels in normal and hyperlipidemic mice. Atherosclerosis. 1988, 70: 107-114). […] Control mice were treated with vehicle (0.25% Carboxymethylcellulose; dose 10 ml/kg). […] Control animals were treated with vehicle (0.25% Carboxymethylcellulose; dose 5 ml/kg). The blood samples were collected in fed state 1 hour after drug administration on 0 and 6 day of treatment. The blood was collected from the retro-orbital sinus through heparinised capillary in EDTA containing tubes. After centrifugation, plasma sample was separated for triglyceride and total cholesterol (Wieland, O. Methods of Enzymatic analysis. Bergermeyer, H. O., Ed., 1963. 211-214; Trinder, P. Ann. Clin. Biochem. 1969, 6: 24-27). […] Percent reduction in Blood sugar/triglycerides/total cholesterol were calculated according to the formula: [formula] […] LDL and VLDL cholesterol levels were calculated according to the formula: […]

[3] = tested on: hypercholesterolemic Sprague Dawley rats; details: rat, in vivo, po, 1 mg/kg
[4] = 3 mg/kg oral gavage daily for 6 days
[5] = 10 mg/kg oral gavage daily for 6 days

## CCOC(Cc1ccc(OCCN2CCSc3ccccc32)cc1)C(=O)[O-].[Na+] (racemic) [Example 30, (±) 3-[4-[2(2,3-Dihydro-1,4-benzothiazin-4-yl)ethoxy]phenyl]-2-ethoxypropanoic acid, sodium salt]
[1]
  Body weight Reduction (%): 18%

## CCCCOC(Cc1ccc(OCCN2CCOc3ccccc32)cc1)C(=O)[O-].[Na+] (racemic) [Example 50, (±) 3-[4-[2-(2,3-Dihydro-1,4-benzoxazin-4-yl)ethoxy]phenyl]-2-butoxypropanoic acid, sodium salt]
C57BL/KsJ-db/db mice; [4]
  Reduction in Blood Glucose Level (%): 45%
  Triglyceride Lowering (%): 23%

## CCOC(Cc1ccc(OCC2CN(Cc3ccccc3)c3ccccc3O2)cc1)C(=O)[O-].[Na+] (racemic) [Example 63, (±) 3-[4-(4-Benzyl-3,4-dihydro-1,4-benzoxazin-2-yl)methoxyphenyl]-2-ethoxy propanoic acid, sodium salt]
[2]
  Triglyceride Lowering (%): 57%

## CCOC(Cc1ccc2cc(OCCN3CCSc4ccccc43)ccc2c1)C(=O)[O-].[Na+] (racemic) [Example 44]
C57BL/KsJ-db/db mice; [5]
  Reduction in Blood Glucose Level (%): 47%
  Triglyceride Lowering (%): 74%
[3]
  HDL (%) ↑ increase: 46%
  LDL (%) ↓ reduction: 44%
  Total Cholesterol (%) ↓ reduction: 42%
  Triglyceride (%) ↓ reduction: 50%
  VLDL (%) ↓ reduction: 53%
